Tests used:
[1] = target: T1, STING R293Q-variant (Homo sapiens, UniProt Q86WV6, H232R/R293Q); test: IRF-inducible SEAP reporter assay in THP1-Blue ISG cells, STING R293Q-variant; format: cell-based; conditions: 24 hours incubation
T1 construct: expressed in transfected cells; host or cells: THP1-Blue ISG hSTING KO clone, retroviral MSCV-ires-GFP-Blasti
Description: (§1) In Vitro Cytokine Induction Measured Via Activation of an Interferon Regulatory Factor Inducible Reporter Gene
(§2) Activation of the STING protein expressed in cell lines results in an increase of interferon production. By the stable integration of an interferon regulatory factor (IRF)-inducible SEAP gene (secreted embryonic alkaline phosphatase) reporter construct the functional interferon signaling pathway can be monitored. Using Invivogen's THP1-Blue™ ISG colorimetric enzyme assay and a suitable optical density (OD) reader the activity of SEAP can be detected and quantified. This technique could be used to characterize pharmacological modification of the STING pathway.
(§3) Several single nucleotide polymorphisms have been identified in the human STING gene. To determine the activity of the above described compounds, THP1-Blue™ ISG reporter cell lines expressing the different human STING variants have been generated. To do so, the endogenous human STING was first deleted using the CRISPR/CAS9 system: THP1-Blue ISG cells were electroporated with ALL-IN-ONE CRISPR plasmids targeting the STING gene (purchased from Sigma encoding the gRNA and GFP as a reporter gene for successful transduction). GFP positive cells then were sorted 24 h post transfection and expanded. Cells were then dispersed in semisolid methocel medium to allow single cell clone isolations. Clones were then screened for cGAMP responsiveness using the Quanti-Blue™ reporter assay. Non-responsive clones were subsequently analysed for STING loss by western blotting and sequencing of the STING locus.
(§4) For the overexpression of the human STING variants, a confirmed THP1-Blue™ ISG hSTING KO clone was transduced with individual retroviral plasmids (MSCV-ires-GFP-Blasti) encoding the allelic variants of hSTING (WT (H232R), HAQ, R232H, AQ and R293Q). Transduced cells were sorted for different levels of GFP fluorescence and STING allele expression was analysed by western blot.
(§5) Measurements of SEAP activity were performed in THP1-Blue™ ISG cells stably expressing the different human STING isoforms and the IRF-inducible SEAP reporter construct. Cells were cultivated in RPMI1640 medium with 10% fetal calf serum, 50 μg/ml Penicillin-Streptomycin, 100 μg/ml Zeocin, and 100 μg/ml Normocin in a 37°, 95% humidity and 5% CO2 incubator.
(§6) In preparation for the assay, the cells were distributed into the assay plates with a density of 10000 cells/15 μL per well. Compounds were prepared by an 8 point serial dilution in 50% aqueous DMSO and a final dilution step into medium to ensure a final DMSO concentration of 0.5% in the assay. 5 μL of diluted compounds were added to the plates, followed by a 24 hours incubation at 37° C.
(§7) At the day of the assay, 75 μl per well of Quanti-Blue™ reagent was added to all wells of the plate and the plate was incubated another 30 minutes at 37° C. The OD at 620 nm was measured on the EnVision reader (PerkinElmer).
(§8) EC50 values and Hill slopes were derived from 8-point four parametric non-linear curve fittings with the Megalab software (Boehringer Ingelheim) using the OD at 620 nm.
(§9) Data of EC50 values can be found in tables 2a-2e.
Data of EC50 values on STING R293Q-variant can be found in table 2d: […]

[2] = target: T2, STING H232R-variant (Homo sapiens, UniProt Q86WV6, H232R); test: IRF-inducible SEAP reporter assay in THP1-Blue ISG cells, STING H232R-variant; format: cell-based; conditions: STING H232R-variant (WT), 24 hours incubation
T2 construct: expressed in transfected cells; host or cells: THP1-Blue ISG hSTING KO clone, retroviral MSCV-ires-GFP-Blasti
T2 sequence (Q86WV6 whole entry H232R): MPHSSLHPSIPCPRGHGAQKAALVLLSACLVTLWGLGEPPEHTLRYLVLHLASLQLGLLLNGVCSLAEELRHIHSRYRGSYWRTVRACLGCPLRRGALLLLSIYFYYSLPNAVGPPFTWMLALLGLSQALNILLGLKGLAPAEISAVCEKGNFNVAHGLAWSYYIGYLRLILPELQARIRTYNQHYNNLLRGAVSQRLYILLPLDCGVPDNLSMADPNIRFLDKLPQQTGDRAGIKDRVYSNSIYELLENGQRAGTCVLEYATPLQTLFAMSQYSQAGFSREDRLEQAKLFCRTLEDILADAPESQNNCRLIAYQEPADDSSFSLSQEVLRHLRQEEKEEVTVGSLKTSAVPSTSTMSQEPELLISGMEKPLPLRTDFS
Description: as §1, §2, §3, §4, §5, §6, §7, §8, §9
Data of EC50 values on STING H232R-variant can be found in table 2b: […]

[3] = in vitro; conditions: human, Caco-2, pH 7.4
Experimental: Cellular Permeability Measurements
Caco-2 cells were obtained from Leibniz Institute DSMZ-German Collection of Microorganisms and Cell Cultures (Braunschweig, Germany) and cultured in DMEM (Dulbecco's modified Eagle medium) containing (in final concentrations) 10% FCS (fetal calf serum), 1% NEAA (non-essential amino acids), 2 mM Glutamin, 100 U/mL Penicillin and 100 μg/mL Streptomycin. Caco-2 cells were seeded either onto 24-well Transwell inserts (Corning, #3379) for bidirectional permeability assays at a density of 160,000 cells/cm^2 and cultured for 3 weeks, with media change on every second day.
For bidirectional permeability assays 10 mM DMSO stock solutions were diluted in transport buffer (final concentrations: 128.13 mM NaCl, 5.36 mM KCl, 1 mM MgSO4, 1.8 mM CaCl2, 4.17 mM NaHCO3, 1.19 mM Na2HPO4, 0.41 mM NaH2PO4, 15 mM 2-[4-(2-hydroxyethyl)piperazin-1-yl]ethanesulfonic acid (HEPES), 20 mM glucose, pH 7.4) containing 0.25% bovine serum albumin to a final concentration of 10 μM of the test compounds and added to the apical or basal compartment. Cells were incubated with the compounds for up to 2 h. Samples from the opposite compartment were taken at different timepoints.
Compound concentrations in the compartments were quantified using a RapidFire-based high-throughput HPLC/MS/MS system (high performance liquid chromatography/mass spectrometry; Bio-Cius) that was customized to a fully automated and flexible platform, termed RIAS. In this modified setup, the sample was aspirated by a vacuum pump into a 10 μL sample loop for 250 ms and flushed onto a C4 cartridge (3.8 μL bed volume; Bio-Cius) with the aqueous mobile phase (99.9% water, 0.09% formic acid, and 0.01% TFA; flow rate 1.5 mL/min). Prior to bioanalysis samples were spiked with internal standard solution and diluted with acetonitrile (ACN) for protein precipitation. Measurement was operated in multiplereaction monitoring (MRM) mode. Quantification was performed using external calibration. A solid-phase extraction step retained the analyte for 3000 ms while interfering matrix (e.g., buffer components) was removed. With a simple step gradient, the analyte was back-eluted from the cartridge for 3,000 ms with the organic mobile phase (99.9% acetonitrile/methanol [1:1, v:v], 0.09% formic acid, and 0.01% TFA) and flushed into the mass spectrometer at a flow rate of 1.25 mL/min. Afterwards, the cartridge was re-equilibrated with the aqueous mobile phase for 500 ms (flow rate 1.5 mL/min).
Apparent permeability coefficients in the apical to basal direction (Papp,AB) and in the basal to apical direction (Papp,BA) and efflux ratios were calculated as follows: Papp,AB=QAB/(C0·s·t) Papp,BA=QBA/(C0·s·t) Efflux ratio=Papp,BA/Papp,AB
where Q is the amount of compound recovered in the receiver compartment after the incubation time t, C0 the initial compound concentration given to the donor compartment, and s the surface area of the Transwell inserts. […] In addition, transepithelial electrical resistance (TEER) values are measured for each plate before the permeability assay, and total recovery in donor and receiver compartments was determined for each compound.

[4] = target: T3, STING R232H-variant (Homo sapiens, UniProt Q86WV6); test: IRF-inducible SEAP reporter assay in THP1-Blue ISG cells, STING R232H-variant; format: cell-based; conditions: 24 hours incubation
T3 construct: expressed in transfected cells; host or cells: THP1-Blue ISG hSTING KO clone, retroviral MSCV-ires-GFP-Blasti
T3 sequence (Q86WV6 whole entry, stated change not applied): as the sequence (Q86WV6 whole entry H232R) above, with R232H counted along it
Description: as §1, §2, §3, §4, §5, §6, §7, §8, §9
Data of EC50 values on STING R232H-variant can be found in table 2c: […]

[5] = target: T4, STING AQ-variant (Homo sapiens, UniProt Q86WV6, G230A/H232R/R293Q); test: IRF-inducible SEAP reporter assay in THP1-Blue ISG cells, STING AQ-variant; format: cell-based; conditions: 24 hours incubation
T4 construct: expressed in transfected cells; host or cells: THP1-Blue ISG hSTING KO clone, retroviral MSCV-ires-GFP-Blasti
T4 sequence (Q86WV6 whole entry G230A/H232R/R293Q): as the sequence (Q86WV6 whole entry H232R) above, with G230A, R293Q counted along it
Description: as §1, §2, §3, §4, §5, §6, §7, §8, §9
Data of EC50 values on STING AQ-variant can be found in table 2e: […]

[6] = target: T5, STING HAQ-variant (Homo sapiens, UniProt Q86WV6, G230A/H232R/R293Q/R71H); test: IRF-inducible SEAP reporter assay in THP1-Blue ISG cells, STING HAQ-variant; format: cell-based; conditions: STING HAQ-variant (parental or re-introduced), 24 hours incubation
T5 construct: parental THP1-Blue™ ISG cell lines (which express endogenously HAQ); host or cells: THP1-Blue ISG (parental, endogenous HAQ) or STING-KO clone re-transduced with HAQ (MSCV-ires-GFP-Blasti)
T5 sequence (Q86WV6 whole entry R71H/G230A/H232R/R293Q): as the sequence (Q86WV6 whole entry H232R) above, with R71H, G230A, R293Q counted along it
Description: as §1, §2, §3, §4, §5, §6, §7, §8, §9
Data of EC50 values on STING HAQ-variant can be found in table 2a. Shown data below were either derived from the parental THP1-Blue™ ISG cell lines (which express endogenously HAQ) or from genetically engineered THP1-Blue™ ISG cell lines in which first STING has been knocked-out and the HAQ specific STING isoform has been re-introduced as described above.

[7] = test system: Human STING (hSTING, residues 155-341); test: Interaction with hSTING as determined by Differential Scanning Fluorimetry (DSF); format: binding; conditions: 100 μM test compounds, 5 μM target protein
Experimental: Interaction with hSTING as Determined by Differential Scanning Fluorimetry (DSF)
In DSF, the temperature at which a protein unfolds, also called the melting temperature Tm, is measured by changes in fluorescence of a dye that binds to the hydrophobic parts of the protein. Tm shifts upon binding of a small molecule are correlated with the binding affinity of this small molecule. As target protein, Human STING (hSTING, residues 155-341, MW: 21578.4 Da; protein stock solution: c=1302 μM stock solution in 20 mM Tris, 100 mM NaCl, 2 mM TCEP pH 8.8) was used, as assay buffer 20 mM Tris, 150 mM NaCI pH7.5 was added where and as necessary.
Final concentrations of components in assay: 100 μM test compounds, 5 μM target protein, “5×” SYPR Orange (from stock solution SYPRO orange solution in DMSO (invitrogen cat.-no. S6650-500 ul), concentration “5000×”)
1) Dilutions of compound stock solutions (10 mM in DMSO) were prepared in assay buffer (20 mM Tris, 150 mM NaCl; pH7.5)
2) 5 μl fluorescent dye stock solution (5000×SYPRO Orange in DMSO) was mixed with 19 μl target protein (1302 μM) and 976 μl assay buffer.
3) 2 μl of this protein-dye-mixture (25×SYPRO Orange and 25 μM Protein) was added to 8 μl diluted compound solution as prepared in step 1. Final volume was 10 μl.
4) With every 20 compounds, two negative controls were measured.
5) The plates were prepared for duplicate measurement and centrifuged for 2 min at 1000 g.
6) For the measurement, a CFX384 Real-Time System (Bio-Rad) was used. The run consisted of 140 cycles with 0.5° C./cycle (temperature ramp 15 s/cycle, 25° C. to 95° C.).
Data analysis: The melting curves were processed in Bio-Rad CFX Manager. Peak type was set to “negative”. Two replicates of TM (melting temperature) measurements were averaged and the standard deviation was calculated.

T1 sequence (Q86WV6 whole entry H232R/R293Q): as the sequence (Q86WV6 whole entry H232R) above, with R293Q counted along it

## Cc1cccc2c(-c3cccc4nn(C)cc34)nn(-c3ccc(N4CCOCC4)nc3)c12 [compound 17, 2′,7-dimethyl-1-[6-(mor-pholin-4-yl)pyridin-3-yl]-1H,2′H-3,4′-biindazole]
[1]
  EC50: 6100 nM
[2]
  EC50: 2100 nM
[3]
  Papp A→B at 10 μM: 26 ×10⁻⁶ cm/s
  efflux ratio at 10 μM: 0.3
[4]
  EC50: 2000 nM
[5]
  EC50: 5700 nM
[6]
  EC50: 6800 nM
[7]
  thermal shift (ΔTm): 16 K

## Cc1cccc2c(-c3cccc4nn(C)cc34)nn(-c3ccc(N4CCC(NS(C)(=O)=O)CC4)nc3)c12 [compound 56, N-[1-(5-{2′,7-dimethyl-1H,2′H-[3,4′-biindazol]-1-yl}pyridin-2-yl)piperidin-4-yl]methanesulfonamide]
[1]
  EC50: 2200 nM
[2]
  EC50: 400 nM
[3]
  Papp A→B at 10 μM: 21 ×10⁻⁶ cm/s
  efflux ratio at 10 μM: 0.6
[4]
  EC50: 800 nM
[5]
  EC50: 2100 nM
[6]
  EC50: 3000 nM
[7]
  thermal shift (ΔTm): 20 K

## CC(=O)N1CCN(c2ccc(-n3nc(-c4cccc5nn(C)cc45)c4cccc(C)c43)cn2)CC1 [compound 15, 1-[4-(5-{2′,7-dimethyl-1H,2′H-[3,4′-biindazol]-1-yl}pyridin-2-yl)piperazin-1-yl]ethan-1-one]
[1]
  EC50: 700 nM
[2]
  EC50: 200 nM
[3]
  Papp A→B at 10 μM: 26 ×10⁻⁶ cm/s
  efflux ratio at 10 μM: 0.5
[4]
  EC50: 200 nM
[5]
  EC50: 700 nM
[6]
  EC50: 1000 nM
[7]
  thermal shift (ΔTm): 21 K

## Cc1cccc2c(-c3cccc4nn(C)cc34)nn(-c3ccc(N4CCC5(CCC(=O)N5)CC4)nc3)c12 [Example #2, 8-(5-{2′,7-dimethyl-1H,2′H-[3,4′-biindazol]-1-yl}pyri-din-2-yl)-1,8-dia-zaspiro[4.5]decan-2-one]
[1]
  EC50: 400 nM
[2]
  EC50: 90 nM
[3]
  Papp A→B at 10 μM: 20 ×10⁻⁶ cm/s
  efflux ratio at 10 μM: 0.6
[4]
  EC50: 50 nM
[5]
  EC50: 200 nM
[6]
  EC50: 600 nM
[7]
  thermal shift (ΔTm): 22 K

## Cc1cccc2c(-c3cccc4nn(C)cc34)nn(-c3ccc(N4CCC(S(N)(=O)=O)CC4)nc3)c12 [Example #22, 1-(5-{2′,7-dimethyl-1H,2′H-[3,4'′biindazol]-1-yl}pyri-din-2-yl)piperidine-4-sul-fonamide]
[1]
  EC50: 700 nM
[2]
  EC50: 100 nM
[3]
  Papp A→B at 10 μM: 10 ×10⁻⁶ cm/s
  efflux ratio at 10 μM: 1.6
[4]
  EC50: 200 nM
[5]
  EC50: 700 nM
[6]
  EC50: 700 nM
[7]
  thermal shift (ΔTm): 23 K

## Cc1cc2c(-c3nn(-c4ccc(N5CC6C(C5)C6C(=O)O)nc4)c4c(C)cccc34)cccn2n1 (centres unmarked) [compound 68, 3-[5-(7-methyl-3-{2-methylpyrazolo[1,5-a]pyr-idin-4-yl}-1H-indazol-1-yl)pyridin-2-yl]-3-azabicy-clo[3.1.0]hexane-6-car-boxylic acid]
[1]
  EC50: 800 nM
[2]
  EC50: 700 nM
[3]
  Papp A→B at 10 μM: 16 ×10⁻⁶ cm/s
  efflux ratio at 10 μM: 1
[4]
  EC50: 700 nM
[5]
  EC50: 800 nM
[6]
  EC50: 1600 nM
[7]
  thermal shift (ΔTm): 24 K

## Cc1cccc2c(-c3cccc4nn(C)cc34)nn(-c3ccc(N4CCC5(CC4)CNC5=O)nc3)c12 [compound 10, 7-(5-{2′,7-dimethyl-1H,2′H-[3,4′-biindazol]-1-yl}pyri-din-2-yl)-2,7-dia-zaspiro[3.5]nonan-1-one]
[1]
  EC50: 2100 nM
[2]
  EC50: 400 nM
[3]
  Papp A→B at 10 μM: 26 ×10⁻⁶ cm/s
[4]
  EC50: 500 nM
[5]
  EC50: 2200 nM
[6]
  EC50: 2100 nM
[7]
  thermal shift (ΔTm): 20 K

## Cc1c(CO)ccc2c(-c3cccc4nn(C)cc34)nn(-c3ccc(N4CCC(S(C)(=O)=O)CC4)nc3)c12 [compound 75, {1-[6-(4-methanesul-fonylpiperidin-1-yl)pyridin-3-yl]-2′,7-dimethyl-1H,2′H-[3,4′-biindazol]-6-yl}meth-anol]
[1]
  EC50: 100 nM
[2]
  EC50: 30 nM
[3]
  Papp A→B at 10 μM: 9 ×10⁻⁶ cm/s
  efflux ratio at 10 μM: 4.8
[4]
  EC50: 50 nM
[5]
  EC50: 100 nM
[6]
  EC50: 100 nM
[7]
  thermal shift (ΔTm): 26 K

## Cc1cccc2c(-c3cccc4nn(C)cc34)nn(-c3ccc(N4CCN(C(N)=O)CC4)nc3)c12 [Example #7, 4-(5-{2′,7-dimethyl-1H,2′H-[3,4′-biindazol]-1-yl}pyri-din-2-yl)piperazine-1-car-boxamide]
[1]
  EC50: 700 nM
[2]
  EC50: 200 nM
[3]
  Papp A→B at 10 μM: 28 ×10⁻⁶ cm/s
  efflux ratio at 10 μM: 0.6
[4]
  EC50: 200 nM
[5]
  EC50: 600 nM
[6]
  EC50: 800 nM
[7]
  thermal shift (ΔTm): 22 K

## CC(=O)NC1C2CN(c3ccc(-n4nc(-c5cccc6nn(C)cc56)c5cccc(C)c54)cn3)CC21 (centres unmarked) [compound 55, N-[3-(5-{2′,7-dimethyl-1H,2′H-[3,4′-biindazol]-1-yl}pyridin-2-yl)-3-azabicyclo[3.1.0]hexan-6-yl]acetamide]
[1]
  EC50: 1700 nM
[2]
  EC50: 800 nM
[3]
  Papp A→B at 10 μM: 21 ×10⁻⁶ cm/s
  efflux ratio at 10 μM: 1
[4]
  EC50: 700 nM
[5]
  EC50: 1200 nM
[6]
  EC50: 2300 nM
[7]
  thermal shift (ΔTm): 20 K

## COC(=O)C1C2CN(c3ccc(-n4nc(-c5cccc6nn(C)cc56)c5cccc(C)c54)cn3)CC21 (centres unmarked) [Example #1, Methyl 3-(5-(2′,7-dimethyl-1H,2′H-[3,4′-biindazol]-1-yl)pyridin-2-yl)-3-azabicyclo[3.1.0]hexane-6-carboxylate]
[1]
  EC50: 400 nM
[2]
  EC50: 200 nM
[3]
  efflux ratio at 10 μM: 0.4
[4]
  EC50: 200 nM
[5]
  EC50: 200 nM
[6]
  EC50: 700 nM
[7]
  thermal shift (ΔTm): 21 K
